Laboratory results as given in paper PMC9486541, “Design, synthesis and cytotoxic evaluation of novel betulonic acid-diazine derivatives as potential antitumor agents” (Frontiers in Chemistry, 2022).

Experiments:
HepG2 = experiment: MTT assay, HepG2 cells; format: cell-based, human; details: Homo sapiens, HepG2, 72 h incubation, read-out: Half maximal inhibitory concentration (IC50) values, HepG2
Text: (§1) The human hepatocellular carcinoma cell line (HepG2), human hepatocellular carcinoma cell line (Bel-7402), human cervical cancer cell line (Hela), human breast adenocarcinoma cell line (MCF-7) and Madin-Darby canine kidney cell line (MDCK) were obtained from the Chinese Academy of Medical Sciences and Peking Union Medical College. Cultures were maintained as monolayer in RPMI-1640/DMEM supplemented with 10% (v/v) fetal bovine serum (FBS) and 1% (v/v) penicillin/streptomycin (Thermo Technologies, New York, NY, United States) under a humidified atmosphere containing 5% CO2 at 37°C. The BoA derivatives and positive control drugs (BoA and DDP) under study were dissolved in DMSO (Sigma, St. Louis, MO, United States) and added at required concentrations to the cell culture. Cells incubated without the preparations served as the control.
(§2) The antitumor activity was assessed by MTT assay, as previously reported ([Fang et al., 2018]). Each tested compound and positive control drugs were dissolved in DMSO and diluted with the medium to the test concentrations, and the final concentration of DMSO in the culture medium was controlled at less than 0.5% (v/v). Briefly, cells were cultured at 37°C and dispersed in replicates in 96-well plates with HepG2, Bel-7402, HeLa, MCF-7 and MDCK for 24 h. Fresh medium along with compounds (BoAA-BoAE, BoA2A-BoA2G, BoA3A-BoA3G, BoA4A-BoA4G) at different concentrations was then added to individual wells and incubated for 72 h, with BoA and DDP as the positive control. Experiments on FXR expression were separated into three groups: Control (PBS), BoA2C (8 μM), and BoA2C (8 μM) + DY268 (10 μM) ([Giordano et al., 2016]), with three repeating wells in each. In separate wells, BoA2C and DY268 were introduced and cultured for 72 h. After 72 h, the cell was incubated with MTT solution (0.5 mg/ml) for an additional 4 h at 37°C. The produced formazan crystals were solubilized with DMSO, and the optical density of solution was measured at 570 nm using a plate reader (BIORAD 550 spectrophotometer, Bio-rad Life Science Development Ltd., Beijing, China). Wells without drugs were used to be blanks. The IC50 values were defined as the concentration of compounds that produced a 50% proliferation inhibition of surviving cells and calculated using the Graph Pad Prism 5. The inhibitory rate was calculated in the following Equation 1, where OD is the optical density: % inhibition=[1−(OD Sample group−OD Blank group)/(OD Control group−OD Blank group)]×100% (1)

Bel-7402 = experiment: MTT assay, Bel-7402 cells; format: cell-based, human; details: Homo sapiens, Bel-7402, 72 h incubation, read-out: Half maximal inhibitory concentration (IC50) values, Bel-7402
Text: as §1, §2

Hela = experiment: MTT assay, Hela cells; format: cell-based, human; details: Homo sapiens, HeLa, 72 h incubation, read-out: Half maximal inhibitory concentration (IC50) values, Hela
Text: as §1, §2

MDCK = experiment: MTT assay, MDCK normal cell line; format: cell-based, canine
Text: as §1, §2

MCF-7 cells [1] = experiment: DAPI staining of nuclear changes, MCF-7; format: cell-based, human; details: MCF-7 cells, 2, 4, 8 μM, 72 h
Description: Morphological observation of nuclear changes was performed by DAPI staining in this assay. MCF-7 cells in the logarithmic growth phase were seeded in 12-well plates at a density of 5 × 10^3 cells/well and were allowed to grow for 24 h. Then the cells were treated with different concentration ranges of BoA2C (0, 2, 4 8 μM) for 72 h. After the treatment period, cells were washed with PBS and fixed with 4% paraformaldehyde for 10 min. Then the liquid was discarded, and the cells were stained with DAPI (1 mg/ml, Molecular Probes/Invitrogen Life Technologies, Carlsbad, CA, United States) for 1 min in dark. After staining, cells were visualized under a fluorescence microscope (Olympus IX71, Tokyo, Japan).

MDCK cells = experiment: DAPI staining of nuclear changes, MDCK; format: cell-based, canine; details: MDCK cells, 2, 4, 8 μM
MCF-7 cells [2] = experiment: Wound healing assay; format: cell-based, human; details: 8 μM, 0, 24, 48 h, compared to control group
Description: MCF-7 cells were seeded in six-well plates at a density of […] and incubated at 37°C to achieve 100 percent confluence. After starving the cells for 24 h, a wound (cell-free) was drawn across the center of the well using the tip of a 1 ml plastic pipette. Wells were cleaned twice with PBS before being treated for 48 h with BoA2C (8 μM). At 0 h, 24 h, and 48 h, cells were viewed and photographed in randomly selected fields using an inverted light microscope (Nikon).

With C=C(C)[C@@H]1CC[C@]2(C(=O)OCCOC(=O)c3cnc(C)cn3)CC[C@]3(C)[C@H](CC[C@@H]4[C@@]5(C)CCC(=O)C(C)(C)[C@@H]5CC[C@]43C)[C@@H]12 [BoA2C, (5-Methylpyrazin-2-acyloxy)-ethyl-3-oxolup-20(29)-en-28-oate] as the molecule, how does the IC50 (HepG2) read?
Its IC50 is 7.46 ± 1.43 µM.

And the IC50 (Bel-7402)?
The IC50 was 3.65 ± 0.43 µM.

And the IC50 (Hela)?
The IC50 was 15.6 ± 2.63 µM.

What about the “cytotoxicity on MDCK cell line compared with DDP (cisplatin)” value (MDCK; 72 h) of the same molecule?
Its value is “lower cytotoxicity on MDCK cell line than cisplatin”.

What about the IC50 (MDCK; Canis lupus familiaris, MDCK, 72 h incubation, normal cell line, read-out: Half maximal inhibitory concentration (IC50) values, MDCK) of the same molecule?
The IC50 was greater than 30 µM.

And the “nuclear morphological changes (DAPI staining)” value (MCF-7 cells [1])?
Its value is “nuclear morphological changes typical of apoptosis in a dose-dependent manner”.

What about the “nuclear damage (DAPI staining)” value (MDCK cells) of the same molecule?
Its value is “did not show a significant nuclear damage”.

And the “migration of cells in the scratch wound” value (MCF-7 cells [2])?
The value was “obviously reduced the migration of MCF-7 cells”.

What about the melting point of the same molecule?
Its melting point is 139 to 141 °C.
